# From patent US20020137929A1, “1 - (3-heterocyclylphenyl) isothiourea, -isourea, -guanidine and -amidine herbicidal agents” (Intellectual Property Department, BASF Aktiengesellschaft, priority 1998, published 2002)
# Key:
# [1] = tested on: ABUTH (Velvetleaf); assay: Postemergence herbicidal evaluation; type: in vivo, Abutilon theophrasti; conditions: postemergence
# Outline: (§1)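 Two-week seedlings sprayed postemergence at 40 psi; formulation: 1:1 acetone/water, 0.5% TWEEN 20; application ≈0.0156–0.500 kg/ha. Greenhouse grow-out, then 0–9 visual scoring at 4–5 weeks.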
# [2] = tested on: ZEAMX (Corn, Field); assay: Postemergence herbicidal evaluation; type: in vivo, Zea mays; conditions: postemergence
# Outline: as §1
# [3] = tested on: ECHCG (Barnyardgrass); assay: Postemergence herbicidal evaluation; type: in vivo, Echinochloa crus-galli; conditions: postemergence
# Outline: as §1
# [4] = tested on: CYPIR (Rice Flatsedge); assay: Postemergence weed control under flooded paddy conditions; type: in vivo, Cyperus iria; conditions: postemergence weeds
# Outline: (§2)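 Containers holding 3–5 cm weeds and rice at 1.5–2.5 leaves are flooded to 1.5–3 cm above soil. Compound in 50/50 v/v aqueous/acetone is then added directly to the water, about 0.0313–0.500 kg/ha. Plants are kept in the greenhouse and rated 0–9 visually at 3–4 weeks.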
# [5] = tested on: AMBEL (Ragweed, Common); assay: Preemergence herbicidal evaluation; type: in vivo, Ambrosia artemisifolia; conditions: rated 4-5 weeks after treatment
# Outline: (§3)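 In this greenhouse assay, monocot and dicot seeds are planted in soil and treated prior to emergence with an aqueous acetone spray (about 0.0156-0.500 kg/ha). Plants are assessed visually against control on a 0-9 scale after 4-5 weeks.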
# [6] = tested on: CYPSE (Flatsedge); assay: Preemergence weed control under flooded paddy conditions; type: in vivo, Cyperus serotinus; conditions: rated 3-4 weeks after treatment
# Outline: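 Flooded-pot preemergence screen with silt loam and seeds in the upper 0.5 cm. Dose about 0.0313 to 0.500 kg/ha, delivered into flood water; visual 0-9 score after 3 to 4 weeks.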
# [7] = tested on: GLXMAW (Soybean, Williams); assay: Postemergence herbicidal evaluation; type: in vivo, Glycine max, (L.) Merr. cv Williams; conditions: postemergence
# Outline: as §1
# [8] = tested on: AMBEL (Ragweed, Common); assay: Postemergence herbicidal evaluation; type: in vivo, Ambrosia artemisifolia; conditions: postemergence
# Outline: as §1
# [9] = tested on: CYPSE (Flatsedge); assay: Postemergence weed control under flooded paddy conditions; type: in vivo, Cyperus serotinus; conditions: postemergence weeds
# Outline: as §2
# [10] = tested on: CHEAL (Lambsquarters, Common); assay: Postemergence herbicidal evaluation; type: in vivo, Chenopodium album; conditions: postemergence
# Outline: as §1
# [11] = tested on: CHEAL (Lambsquarters, Common); assay: Preemergence herbicidal evaluation; type: in vivo, Chenopodium album; conditions: rated 4-5 weeks after treatment
# Outline: as §3
# [12] = tested on: ORYSAT (Rice, Tebonnet); assay: Postemergence herbicidal evaluation; type: in vivo, Oryza sativa, (L.) Tebonnet; conditions: postemergence
# Outline: as §1
# [13] = tested on: GALAP (Galium); assay: Preemergence herbicidal evaluation; type: in vivo, Galium aparine; conditions: rated 4-5 weeks after treatment
# Outline: as §3
# [14] = tested on: CASOB (Sicklepod); assay: Preemergence herbicidal evaluation; type: in vivo, Cassia obtusifolia; conditions: rated 4-5 weeks after treatment
# Outline: as §3
# [15] = rate 0.0313 kg/ha, 3-4 weeks after treatment
# [16] = rate 0.0625 kg/ha, 3-4 weeks after treatment
# [17] = rate 0.1250 kg/ha, 3-4 weeks after treatment
# [18] = rate 0.2500 kg/ha, 3-4 weeks after treatment
# [19] = Rate 0.1250 kg/ha, rated 3 to 4 weeks after treatment
# [20] = Rate 0.2500 kg/ha, rated 3 to 4 weeks after treatment
smiles,measurement,setting,value
"CCOC(=O)CN1C(=O)C(CC)SC1=Nc1cc(-n2c(=O)cc(C(F)(F)F)n(C)c2=O)c(F)cc1Cl (centres unmarked) [Compound 13, Ethyl 2-{{2-chloro-5-[3,6-dihydro-3-methyl-2,6-dioxo-4-(trifluoromethyl)-1(2H)-pyrimidinyl]-4-fluorophenyl}imino}-5-ethyl-4-oxo-3-thiazolidineacetate]",ABUTH herbicidal rating,[1]; rate 0.0156 kg/ha,9.0
same,ABUTH herbicidal rating,[1]; rate 0.0313 kg/ha,9.0
same,ABUTH herbicidal rating,[1]; rate 0.0625 kg/ha,9.0
same,ABUTH herbicidal rating,[1]; rate 0.1250 kg/ha,9.0
same,ZEAMX herbicidal rating,[2]; rate 0.0156 kg/ha,7.0
same,ZEAMX herbicidal rating,[2]; rate 0.0313 kg/ha,7.0
same,ZEAMX herbicidal rating,[2]; rate 0.0625 kg/ha,7.5
same,ZEAMX herbicidal rating,[2]; rate 0.1250 kg/ha,8.0
same,ECHCG herbicidal rating,[3]; rate 0.0156 kg/ha,2.0
same,ECHCG herbicidal rating,[3]; rate 0.0313 kg/ha,2.0
same,ECHCG herbicidal rating,[3]; rate 0.0625 kg/ha,3.0
same,ECHCG herbicidal rating,[3]; rate 0.1250 kg/ha,7.0
same,Herbicidal rating CYPIR,[4]; [15],0.0
same,Herbicidal rating CYPIR,[4]; [16],0.0
same,Herbicidal rating CYPIR,[4]; [17],0.5
same,Herbicidal rating CYPIR,[4]; [18],1.0
same,AMBEL preemergence herbicidal rating,[5]; rate 0.0156 kg/ha,0.0
same,AMBEL preemergence herbicidal rating,[5]; rate 0.0313 kg/ha,2.0
same,AMBEL preemergence herbicidal rating,[5]; rate 0.0625 kg/ha,6.0
same,AMBEL preemergence herbicidal rating,[5]; rate 0.1250 kg/ha,9.0
same,AMBEL preemergence herbicidal rating,[5]; rate 0.2500 kg/ha,9.0
same,Herbicidal rating CYPSE,[6]; 0.0156 kg/ha,0.0
same,Herbicidal rating CYPSE,[6]; 0.0313 kg/ha,0.0
same,Herbicidal rating CYPSE,[6]; 0.0625 kg/ha,0.0
same,Herbicidal rating CYPSE,[6]; 0.1250 kg/ha,0.0
same,Herbicidal rating CYPSE,[6]; 0.2500 kg/ha,0.0
same,GLXMAW herbicidal rating,[7]; rate 0.0156 kg/ha,5.0
same,GLXMAW herbicidal rating,[7]; rate 0.0313 kg/ha,5.5
same,GLXMAW herbicidal rating,[7]; rate 0.0625 kg/ha,5.5
same,GLXMAW herbicidal rating,[7]; rate 0.1250 kg/ha,7.5
same,AMBEL herbicidal rating,[8]; rate 0.0156 kg/ha,7.0
same,AMBEL herbicidal rating,[8]; rate 0.0313 kg/ha,9.0
same,AMBEL herbicidal rating,[8]; rate 0.0625 kg/ha,9.0
same,AMBEL herbicidal rating,[8]; rate 0.1250 kg/ha,9.0
same,Herbicidal rating CYPSE,[9]; [15],0.0
same,Herbicidal rating CYPSE,[9]; [16],0.0
same,Herbicidal rating CYPSE,[9]; [17],0.0
same,Herbicidal rating CYPSE,[9]; [18],0.0
same,CHEAL herbicidal rating,[10]; rate 0.0156 kg/ha,9.0
same,CHEAL herbicidal rating,[10]; rate 0.0313 kg/ha,8.0
same,CHEAL herbicidal rating,[10]; rate 0.0625 kg/ha,9.0
same,CHEAL herbicidal rating,[10]; rate 0.1250 kg/ha,9.0
same,CHEAL preemergence herbicidal rating,[11]; rate 0.0156 kg/ha,9.0
same,CHEAL preemergence herbicidal rating,[11]; rate 0.0313 kg/ha,9.0
same,CHEAL preemergence herbicidal rating,[11]; rate 0.0625 kg/ha,9.0
same,CHEAL preemergence herbicidal rating,[11]; rate 0.1250 kg/ha,9.0
same,CHEAL preemergence herbicidal rating,[11]; rate 0.2500 kg/ha,9.0
same,ORYSAT herbicidal rating,[12]; rate 0.0156 kg/ha,1.5
same,ORYSAT herbicidal rating,[12]; rate 0.0313 kg/ha,2.5
same,ORYSAT herbicidal rating,[12]; rate 0.0625 kg/ha,2.5
same,ORYSAT herbicidal rating,[12]; rate 0.1250 kg/ha,3.0
same,GALAP preemergence herbicidal rating,[13]; rate 0.0156 kg/ha,0.0
same,GALAP preemergence herbicidal rating,[13]; rate 0.0313 kg/ha,0.0
same,GALAP preemergence herbicidal rating,[13]; rate 0.0625 kg/ha,0.0
same,GALAP preemergence herbicidal rating,[13]; rate 0.1250 kg/ha,0.0
same,GALAP preemergence herbicidal rating,[13]; rate 0.2500 kg/ha,0.0
same,CASOB preemergence herbicidal rating,[14]; rate 0.0156 kg/ha,0.0
same,CASOB preemergence herbicidal rating,[14]; rate 0.0313 kg/ha,0.0
same,CASOB preemergence herbicidal rating,[14]; rate 0.0625 kg/ha,0.0
same,CASOB preemergence herbicidal rating,[14]; rate 0.1250 kg/ha,1.0
same,CASOB preemergence herbicidal rating,[14]; rate 0.2500 kg/ha,3.0
Cn1c(C(F)(F)F)cc(=O)n(-c2cc(N=C3SCC(=O)N3C3CCOC3=O)c(Cl)cc2F)c1=O (centres unmarked) [Compound 73],ABUTH herbicidal rating,[1]; rate 0.0158 kg/ha,9.0
same,ABUTH herbicidal rating,[1]; rate 0.0315 kg/ha,9.0
same,ABUTH herbicidal rating,[1]; rate 0.0630 kg/ha,9.0
same,ZEAMX herbicidal rating,[2]; rate 0.0158 kg/ha,4.5
same,ZEAMX herbicidal rating,[2]; rate 0.0315 kg/ha,4.5
same,ZEAMX herbicidal rating,[2]; rate 0.0630 kg/ha,5.0
same,ECHCG herbicidal rating,[3]; rate 0.0158 kg/ha,2.0
same,ECHCG herbicidal rating,[3]; rate 0.0315 kg/ha,2.0
same,ECHCG herbicidal rating,[3]; rate 0.0630 kg/ha,3.0
same,Herbicidal rating CYPIR,[4]; [19],0.0
same,Herbicidal rating CYPIR,[4]; [20],6.0
same,Preemergence herbicidal rating AMBEL,[5]; rate 0.0156 kg/ha,1.0
same,Preemergence herbicidal rating AMBEL,[5]; rate 0.0313 kg/ha,0.0
same,Preemergence herbicidal rating AMBEL,[5]; rate 0.0625 kg/ha,4.0
same,Preemergence herbicidal rating AMBEL,[5]; rate 0.1250 kg/ha,9.0
same,Preemergence herbicidal rating AMBEL,[5]; rate 0.2500 kg/ha,9.0
same,CYPSE herbicidal effect rating,[6]; 0.1250 kg/ha,2.0
same,CYPSE herbicidal effect rating,[6]; 0.2500 kg/ha,4.0
same,GLXMAW herbicidal rating,[7]; rate 0.0158 kg/ha,6.0
same,GLXMAW herbicidal rating,[7]; rate 0.0315 kg/ha,5.5
same,GLXMAW herbicidal rating,[7]; rate 0.0630 kg/ha,7.5
same,AMBEL herbicidal rating,[8]; rate 0.0158 kg/ha,9.0
same,AMBEL herbicidal rating,[8]; rate 0.0315 kg/ha,9.0
same,AMBEL herbicidal rating,[8]; rate 0.0630 kg/ha,9.0
same,Herbicidal rating CYPSE,[9]; [19],2.0
same,Herbicidal rating CYPSE,[9]; [20],4.0
same,CHEAL herbicidal rating,[10]; rate 0.0158 kg/ha,4.0
same,CHEAL herbicidal rating,[10]; rate 0.0315 kg/ha,9.0
same,CHEAL herbicidal rating,[10]; rate 0.0630 kg/ha,9.0
same,Preemergence herbicidal rating CHEAL,[11]; rate 0.0156 kg/ha,9.0
same,Preemergence herbicidal rating CHEAL,[11]; rate 0.0313 kg/ha,9.0
same,Preemergence herbicidal rating CHEAL,[11]; rate 0.0625 kg/ha,9.0
same,Preemergence herbicidal rating CHEAL,[11]; rate 0.1250 kg/ha,9.0
same,Preemergence herbicidal rating CHEAL,[11]; rate 0.2500 kg/ha,9.0
same,ORYSAT herbicidal rating,[12]; rate 0.0158 kg/ha,2.5
same,ORYSAT herbicidal rating,[12]; rate 0.0315 kg/ha,3.0
same,ORYSAT herbicidal rating,[12]; rate 0.0630 kg/ha,4.0
same,Preemergence herbicidal rating GALAP,[13]; rate 0.0156 kg/ha,0.0
same,Preemergence herbicidal rating GALAP,[13]; rate 0.0313 kg/ha,0.0
same,Preemergence herbicidal rating GALAP,[13]; rate 0.0625 kg/ha,0.0
same,Preemergence herbicidal rating GALAP,[13]; rate 0.1250 kg/ha,4.0
same,Preemergence herbicidal rating GALAP,[13]; rate 0.2500 kg/ha,9.0
same,Preemergence herbicidal rating CASOB,[14]; rate 0.0313 kg/ha,0.0
same,Preemergence herbicidal rating CASOB,[14]; rate 0.0625 kg/ha,0.0
same,Preemergence herbicidal rating CASOB,[14]; rate 0.1250 kg/ha,1.0
same,Preemergence herbicidal rating CASOB,[14]; rate 0.2500 kg/ha,2.0
